# Laboratory results: ChEMBL document CHEMBL2439971, “Design, synthesis and antiproliferative evaluation of fluorenone analogs with DNA topoisomerase I inhibitory properties” (Bioorg Med Chem, 2013)
# How the values were obtained:
# [1] = Cytotoxicity against human EKVX cells at 10 uM after 48 hrs by sulforhodamine B assay relative to control; type: functional
# SW-620 = experiment: Cytotoxicity against human SW620 cells at 10 uM after 48 hrs by sulforhodamine B assay relative to control; type: functional
# OVCAR-8 = experiment: Cytotoxicity against human OVCAR8 cells after 48 hrs by sulforhodamine B assay; type: functional; settings: OVCAR-8, 48 h
# K562 = experiment: Cytotoxicity against human K562 cells at 10 uM after 48 hrs by sulforhodamine B assay relative to control; type: functional
# NCI-H460 [2] = experiment: Cytotoxicity against human NCI-H460 cells after 48 hrs by sulforhodamine B assay; type: functional; settings: NCI-H460, 48 h
# NCI-H322M = experiment: Cytotoxicity against human NCI-H322M cells at 10 uM after 48 hrs by sulforhodamine B assay relative to control; type: functional
# DU-145 = experiment: Cytotoxicity against human DU145 cells after 48 hrs by sulforhodamine B assay; type: functional; settings: DU-145, 48 h
# SK-MEL-2 = experiment: Cytotoxicity against human SK-MEL-2 cells after 48 hrs by sulforhodamine B assay; type: functional; settings: SK-MEL-2, 48 h
# PC-3 [3] = experiment: Cytotoxicity against human PC3 cells after 48 hrs by sulforhodamine B assay; type: functional, cell-based; settings: PC-3, 48 h
# SK-MEL-5 [4] = experiment: Cytotoxicity against human SK-MEL-5 cells at 10 uM after 48 hrs by sulforhodamine B assay relative to control; type: functional
# UO-31 = experiment: Cytotoxicity against human UO31 cells at 10 uM after 48 hrs by sulforhodamine B assay relative to control; type: functional
# MDA-MB-435 = experiment: Cytotoxicity against human MDA-MB-435 cells at 10 uM after 48 hrs by sulforhodamine B assay relative to control; type: functional
# 786-0 = experiment: Cytotoxicity against human 786-0 cells after 48 hrs by sulforhodamine B assay; type: functional; settings: 786-0, 48 h
# A549 [5] = experiment: Cytotoxicity against human A549 cells at 10 uM after 48 hrs by sulforhodamine B assay relative to control; type: functional
# PC-3 [6] = experiment: Cytotoxicity against human PC3 cells at 10 uM after 48 hrs by sulforhodamine B assay relative to control; type: functional
# TK-10 = experiment: Cytotoxicity against human TK10 cells after 48 hrs by sulforhodamine B assay; type: functional; settings: TK-10, 48 h
# Malme-3M = experiment: Cytotoxicity against human MALME-3M cells at 10 uM after 48 hrs by sulforhodamine B assay relative to control; type: functional
# COLO 205 = experiment: Cytotoxicity against human COLO205 cells at 10 uM after 48 hrs by sulforhodamine B assay relative to control; type: functional
# SK-MEL-28 = experiment: Cytotoxicity against human SK-MEL-28 cells at 10 uM after 48 hrs by sulforhodamine B assay relative to control; type: functional
# HCT-116 [7] = experiment: Cytotoxicity against human HCT116 cells after 48 hrs by sulforhodamine B assay; type: functional; settings: HCT-116, 48 h
# HCT-15 = experiment: Cytotoxicity against human HCT15 cells at 10 uM after 48 hrs by sulforhodamine B assay relative to control; type: functional
# RPMI-8226 = experiment: Cytotoxicity against human RPMI8226 cells after 48 hrs by sulforhodamine B assay; type: functional; settings: RPMI-8226, 48 h
# HCT-116 [8] = experiment: Cytotoxicity against human HCT116 cells at 10 uM after 48 hrs by sulforhodamine B assay relative to control; type: functional
# HOP-92 = experiment: Cytotoxicity against human HOP92 cells after 48 hrs by sulforhodamine B assay; type: functional; settings: HOP-92, 48 h
# MDA-MB-231 [9] = experiment: Cytotoxicity against human MDA-MB-231 cells at 10 uM after 48 hrs by sulforhodamine B assay relative to control; type: functional
# HL-60(TB) = experiment: Cytotoxicity against human HL-60(TB) cells at 10 uM after 48 hrs by sulforhodamine B assay relative to control; type: functional
# LOX IMVI = experiment: Cytotoxicity against human LOXIMVI cells after 48 hrs by sulforhodamine B assay; type: functional
# OVCAR-4 = experiment: Cytotoxicity against human OVCAR4 cells at 10 uM after 48 hrs by sulforhodamine B assay relative to control; type: functional
# SK-MEL-5 [10] = experiment: Cytotoxicity against human SK-MEL-5 cells after 48 hrs by sulforhodamine B assay; type: functional; settings: SK-MEL-5, 48 h
# ACHN [11] = experiment: Cytotoxicity against human ACHN cells at 10 uM after 48 hrs by sulforhodamine B assay relative to control; type: functional
# NCI-H460 [12] = experiment: Cytotoxicity against human NCI-H460 cells at 10 uM after 48 hrs by sulforhodamine B assay relative to control; type: functional
# SNB-75 = experiment: Cytotoxicity against human SNB75 cells at 10 uM after 48 hrs by sulforhodamine B assay relative to control; type: functional
# A549 [13] = experiment: Cytotoxicity against human A549/ATCC cells after 48 hrs by sulforhodamine B assay; type: functional; settings: A549, 48 h
# HCC 2998 = experiment: Cytotoxicity against human HCC2998 cells after 48 hrs by sulforhodamine B assay; type: functional; settings: HCC 2998, 48 h
# MDA-MB-231 [14] = experiment: Cytotoxicity against human MDA-MB-231 cells after 48 hrs by sulforhodamine B assay; type: functional; settings: MDA-MB-231, 48 h
# NCI-H23 = experiment: Cytotoxicity against human NCI-H23 cells after 48 hrs by sulforhodamine B assay; type: functional; settings: NCI-H23, 48 h
# M14 = experiment: Cytotoxicity against human M14 cells after 48 hrs by sulforhodamine B assay; type: functional; settings: M14, 48 h
# UACC-257 = experiment: Cytotoxicity against human UACC257 cells at 10 uM after 48 hrs by sulforhodamine B assay relative to control; type: functional
# ACHN [15] = experiment: Cytotoxicity against human ACHN cells after 48 hrs by sulforhodamine B assay; type: functional
# [16] = read-out: LC50 (the source's name)
structure (smiles),measurement,setting,value
CCCCNCC(=O)Nc1ccc2c(c1)C(=O)c1cc(NC(=O)CNCCCC)ccc1-2,Activity,[1],58.12%
same,Activity,SW-620,-4.84%
same,GI50,OVCAR-8,2.19 µM
same,TGI,OVCAR-8,6.16 µM
same,CC50,OVCAR-8; [16],28.9 µM
same,Activity,K562,-53.98%
same,GI50,NCI-H460 [2],1.49 µM
same,TGI,NCI-H460 [2],3.35 µM
same,CC50,NCI-H460 [2]; [16],7.53 µM
same,Activity,NCI-H322M,-0.61%
same,GI50,DU-145,1.43 µM
same,TGI,DU-145,3.37 µM
same,CC50,DU-145; [16],7.94 µM
same,GI50,SK-MEL-2,1.76 µM
same,TGI,SK-MEL-2,3.3 µM
same,CC50,SK-MEL-2; [16],6.18 µM
same,GI50,PC-3 [3],1.72 µM
same,IC50,PC-3 [3],3.61 µM
same,LC50 (concentration killing 50% of cells),PC-3 [3],13.1 µM
same,TGI,PC-3 [3],4.34 µM
same,Activity,SK-MEL-5 [4],-87.04%
same,Activity,UO-31,-42.01%
same,Activity,MDA-MB-435,-58.56%
same,GI50,786-0,1.43 µM
same,TGI,786-0,2.82 µM
same,CC50,786-0; [16],5.56 µM
same,Activity,A549 [5],-32.16%
same,Activity,PC-3 [6],-4.48%
same,GI50,TK-10,2.43 µM
same,TGI,TK-10,6.67 µM
same,CC50,TK-10; [16],24.1 µM
same,Activity,Malme-3M,-68.3%
same,Activity,COLO 205,-86.41%
same,Activity,SK-MEL-28,-81.88%
same,GI50,HCT-116 [7],0.81 µM
same,TGI,HCT-116 [7],2.18 µM
same,CC50,HCT-116 [7]; [16],5.16 µM
same,Activity,HCT-15,24.17%
same,GI50,RPMI-8226,1.86 µM
same,TGI,RPMI-8226,4.9 µM
same,CC50,RPMI-8226; [16],4.6 µM
same,Activity,HCT-116 [8],-89.71%
same,GI50,HOP-92,1.4 µM
same,TGI,HOP-92,3.77 µM
same,CC50,HOP-92; [16],10.6 µM
same,Activity,MDA-MB-231 [9],-27.12%
same,Activity,HL-60(TB),-63.01%
same,GI50,LOX IMVI,1.05 µM
same,TGI,LOX IMVI,2.34 µM
same,CC50,LOX IMVI; [16],5.18 µM
same,Activity,OVCAR-4,-29.46%
same,GI50,SK-MEL-5 [10],1.77 µM
same,TGI,SK-MEL-5 [10],3.18 µM
same,CC50,SK-MEL-5 [10]; [16],5.71 µM
same,Activity,ACHN [11],18.19%
same,Activity,NCI-H460 [12],-27.51%
same,Activity,SNB-75,36.53%
same,GI50,A549 [13],1.53 µM
same,TGI,A549 [13],3.37 µM
same,CC50,A549 [13]; [16],7.39 µM
same,GI50,HCC 2998,1.54 µM
same,TGI,HCC 2998,2.95 µM
same,CC50,HCC 2998; [16],5.66 µM
same,GI50,MDA-MB-231 [14],1.39 µM
same,TGI,MDA-MB-231 [14],2.9 µM
same,CC50,MDA-MB-231 [14]; [16],6.02 µM
same,GI50,NCI-H23,2.63 µM
same,TGI,NCI-H23,10.1 µM
same,CC50,NCI-H23; [16],35.7 µM
same,GI50,M14,1.6 µM
same,TGI,M14,3.08 µM
same,CC50,M14; [16],5.94 µM
same,Activity,UACC-257,-84.17%
same,GI50,ACHN [15],1.4 µM
same,TGI,ACHN [15],4.14 µM
same,CC50,ACHN [15]; [16],14.9 µM
